{
  "source": "patent US8815891B2",
  "about": "“Tricyclic derivative or pharmaceutically acceptable salts thereof, preparation method thereof, and pharmaceutical composition containing the same” (Je Il Pharmaceutical Co., Ltd., priority 2008, dated 2014)",
  "key": {"[1]": {"target": "PARP-1 enzyme (Homo sapiens (Human), UniProt P09874)", "sequence (P09874 whole entry)": "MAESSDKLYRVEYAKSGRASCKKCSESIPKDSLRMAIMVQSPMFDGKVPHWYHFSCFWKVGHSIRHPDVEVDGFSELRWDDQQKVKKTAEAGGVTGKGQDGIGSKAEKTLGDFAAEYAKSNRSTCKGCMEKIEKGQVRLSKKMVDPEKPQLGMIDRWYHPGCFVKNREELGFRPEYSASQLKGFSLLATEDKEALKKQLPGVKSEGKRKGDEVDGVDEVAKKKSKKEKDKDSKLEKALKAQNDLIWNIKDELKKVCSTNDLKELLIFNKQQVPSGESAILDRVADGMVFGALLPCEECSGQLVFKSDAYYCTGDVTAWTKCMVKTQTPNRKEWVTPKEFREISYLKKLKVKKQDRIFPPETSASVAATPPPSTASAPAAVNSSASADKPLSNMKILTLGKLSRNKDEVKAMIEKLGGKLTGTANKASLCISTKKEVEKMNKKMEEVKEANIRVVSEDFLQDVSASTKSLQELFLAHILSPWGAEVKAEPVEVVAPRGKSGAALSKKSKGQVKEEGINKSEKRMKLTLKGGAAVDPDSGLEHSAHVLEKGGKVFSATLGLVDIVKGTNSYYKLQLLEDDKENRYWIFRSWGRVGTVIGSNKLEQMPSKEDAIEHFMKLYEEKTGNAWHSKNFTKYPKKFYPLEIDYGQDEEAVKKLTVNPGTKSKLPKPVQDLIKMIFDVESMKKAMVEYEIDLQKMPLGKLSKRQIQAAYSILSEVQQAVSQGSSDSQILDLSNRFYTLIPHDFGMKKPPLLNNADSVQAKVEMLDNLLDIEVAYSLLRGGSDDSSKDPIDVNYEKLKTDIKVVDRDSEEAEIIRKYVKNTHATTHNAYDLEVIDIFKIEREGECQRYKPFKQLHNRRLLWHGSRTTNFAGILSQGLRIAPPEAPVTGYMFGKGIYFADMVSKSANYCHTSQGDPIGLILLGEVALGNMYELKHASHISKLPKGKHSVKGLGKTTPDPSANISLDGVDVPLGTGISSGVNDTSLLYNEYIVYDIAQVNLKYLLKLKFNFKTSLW", "test": "Poly(ADP-ribose)polymerase [PARP-1] enzyme inhibitory activity (Trevigen PARP Assay kit)", "format": "biochemical", "details": "PARP-1 enzyme, histone ribosylation, 450 nm; read-out: PARP-1 Inhibitory activity IC50", "how_it_was_run": "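On histone-coated plates, PARP-1 (0.12 unit/well) reacted with compound for 30 min at 25 °C in a 2× cocktail of 1.95 mM NAD+, 50 μM biotinylated NAD+ and activated DNA (Tris pH 8.0, 25 mM MgCl2). Biotin-ribosylated histone was detected with streptavidin-HRP and TACS-Sapphire substrate, stopped with HCl and read at 450 nm.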"}, "[2]": {"target": "PARP-1 enzyme (Cricetulus griseus (Chinese hamster) (Cricetulus barabensis griseus), UniProt Q9R152)", "sequence (Q9R152 whole entry)": "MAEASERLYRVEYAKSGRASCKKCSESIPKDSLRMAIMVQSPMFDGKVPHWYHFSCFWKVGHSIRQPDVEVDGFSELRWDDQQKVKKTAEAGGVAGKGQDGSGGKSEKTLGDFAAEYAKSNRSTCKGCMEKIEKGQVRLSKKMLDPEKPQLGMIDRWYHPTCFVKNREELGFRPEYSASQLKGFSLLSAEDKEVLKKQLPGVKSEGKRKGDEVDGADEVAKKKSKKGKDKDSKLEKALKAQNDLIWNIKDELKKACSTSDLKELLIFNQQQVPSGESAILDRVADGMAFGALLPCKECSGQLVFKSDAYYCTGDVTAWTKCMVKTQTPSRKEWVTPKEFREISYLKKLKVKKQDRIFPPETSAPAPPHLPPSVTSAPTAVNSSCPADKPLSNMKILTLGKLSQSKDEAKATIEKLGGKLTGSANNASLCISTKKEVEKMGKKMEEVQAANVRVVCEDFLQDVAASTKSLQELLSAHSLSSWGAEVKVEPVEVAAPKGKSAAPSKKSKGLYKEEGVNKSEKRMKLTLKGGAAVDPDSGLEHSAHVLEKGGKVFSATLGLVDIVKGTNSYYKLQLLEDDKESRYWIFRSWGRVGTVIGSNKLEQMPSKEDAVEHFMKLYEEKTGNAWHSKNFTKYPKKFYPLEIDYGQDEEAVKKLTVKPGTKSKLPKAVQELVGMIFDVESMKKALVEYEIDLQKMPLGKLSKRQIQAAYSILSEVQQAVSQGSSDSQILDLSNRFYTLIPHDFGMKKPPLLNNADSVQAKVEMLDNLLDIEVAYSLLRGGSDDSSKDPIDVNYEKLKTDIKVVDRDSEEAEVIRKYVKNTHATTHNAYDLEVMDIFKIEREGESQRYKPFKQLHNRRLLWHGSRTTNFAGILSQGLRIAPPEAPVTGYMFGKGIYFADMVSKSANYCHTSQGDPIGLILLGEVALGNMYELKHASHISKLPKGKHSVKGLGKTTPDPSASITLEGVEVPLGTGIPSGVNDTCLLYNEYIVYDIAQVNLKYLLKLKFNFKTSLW", "test": "Intracellular PARP inhibitory activity (NAD(P)H released by MMS-treated CHO-K1 cells)", "format": "cell-based", "experimental": "In order to verify the ability of the compounds of the present invention to inhibit the PARP-1 enzyme activity, the amount of NAD(P)H accumulated on cell culture medium was measured.\nThe Chinese hamster ovary cells (CHO-K1) were cultured in RPMI1640 culture medium containing 10% fetal bovine serum (FBS). The cultured CHO-K1 cells were seeded into 96 well plate by 2.9×10^3 cells/well, and cultured for 16 hours under culture condition of 37° C., 5% CO2. After the culture, the cells were treated with the compounds of the Examples at varying concentrations, and cultured at 37° C. for 2 hours. […] The amount of […] released to the culture medium 3, 4, 5 hours after the treatment with MMS was quantified at 450 nm using Wallac EnVision™ (PerkinElmer Oy, Turku, Finland). The transference numbers of the compounds at varying concentrations according to the present invention are the average values obtained from four wells, and the results were calculated using regression analysis.\nThe Chinese hamster ovary cells (CHO-K1) were treated with the compounds at varying concentration according to the present invention, and the amount of NAD(P)H released into the culture medium 4 hours after the MMS treatment was quantified."}, "[3]": {"tested_on": "HT-29 Cell line", "test": "Cell growth inhibition of cancer cell lines (SRB assay), HT-29", "format": "cell-based", "experimental": "(§1) The tests on cell growth inhibitory activity were performed with respect to A549 (US, ATCC), SK-OV-3 (Korea Research Institute of Chemical Technology; KRICT), HT-29 (US, ATCC), MCF-7 cell (US, ATCC), using Sulforhodamin-B <SRB> Assay (1989, US National Cancer Institute (NCI)) which was developed to measure the in vitro anti-cancer activity of the drug. […] The samples of the compounds of the Examples according to the present invention were used for the tests, and before the tests, the samples were dissolved in dimethylsulfoxide and diluted with the culture medium (RPMI 1640) to be used. The final concentration of the sample was varied in the range of 0.3˜100 μM. After the culture medium was removed from the 96 well plates, the diluted sample solution was added by 100 μl, and cultured in 37° C., 5% CO2 culture medium for 72 hours. The time zero (Tz) plates were collected at the time point of adding the sample. Upon completing the culture, the medium was removed from each well along with Tz plate, then cold 10% trichloroacetic acid (TCA) was added by 100 μl per well. The wells were left at 4° C. for 1 hour, so that the cells were fixed into the bottom of the plates. After the cells were fixed, the plates were rinsed with water five to six times to remove the remaining trichloroacetic acid solution, and moisture was completely dried at room temperature. The cells were dyed for 30 minutes by adding the dye solution in which 0.4% sulforhodamine-B was dissolved in 1% acetic acid solution, by 100 μl per dried wells. The above was rinsed again with 1% acetic acid solution five to six times to ensure that sulforhodamine-B which had not attached to the cells was removed. The plates were again dried at room temperature. 100 μl of 10 mM tris-buffer was then added to dissolve the dye, and the optical density (OD) at 520 nm was measured with the microplate reader. GI50 of the sample regarding cancer cell was calculated as explained below. Time zero (Tz), control value (C) and test value (T) were obtained, in which Tz corresponds to OD value of time at which the sample is applied and culture is started, C corresponds to OD value of the well which is cultured without treatment with the sample, and T corresponds to OD value of the well which is treated with the sample and then cultured. The degree of cell growth inhibition of the sample was measured using: If […] [Mathematical Formula 1]\n(§2) Further, the ability of Examples 2, 42, 49, 52, 72, 74, 101 to increase growth inhibition effect of temozolomide and SN-38 at 2 μM was determined."}, "[4]": {"tested_on": "SK-OV-3 Cell line", "test": "Cell growth inhibition of cancer cell lines (SRB assay), SK-OV-3", "format": "cell-based", "experimental": "as §1, §2"}, "[5]": {"tested_on": "A549 cell line", "test": "Cell growth inhibition of cancer cell lines (SRB assay), A549", "format": "cell-based", "experimental": "as §1, §2"}, "[6]": {"tested_on": "MCF-7 Cell line", "test": "Cell growth inhibition of cancer cell lines (SRB assay), MCF-7", "format": "cell-based", "experimental": "as §1, §2"}},
  "note": "pIC50: −log10 of the molar value. Structures can show the parent of a compound that is named as a salt.",
  "data": [
    {"smiles": "CCOc1cc(CN2CCOCC2)cc2[nH]c(=O)c3c(c12)NCCC3", "note": "[Example 101, 10-Ethoxy-8-(morpholinomethyl)-1,2,3,4-tetrahydrobenzo[h][1,6]naphthyridine-5(6H)-one dihydrochloride]", "values": [
      {"measurement": "pIC50", "setting": "[1]", "result": 6.25},
      {"measurement": "pIC50", "setting": "[2]", "result": 5.71},
      {"measurement": "SN-38 PF50", "setting": "[3]; 2 μM compound", "result": 4.0},
      {"measurement": "Temozolomide PF50", "setting": "[3]; 2 μM compound", "result": ">1.9"},
      {"measurement": "GI50", "setting": "[3]; Homo sapiens, 72 hours", "result": 20, "unit": "µM"},
      {"measurement": "SN-38 PF50", "setting": "[4]; 2 μM compound", "result": 2.8},
      {"measurement": "Temozolomide PF50", "setting": "[4]; 2 μM compound", "result": ">3.9"},
      {"measurement": "GI50", "setting": "[4]; Homo sapiens, 72 hours", "result": 19, "unit": "µM"},
      {"measurement": "SN-38 PF50", "setting": "[5]; 2 μM compound, GI50 SN-38 alone / GI50 with compound", "result": 2.6},
      {"measurement": "Temozolomide PF50", "setting": "[5]; 2 μM compound, GI50 temozolomide alone / GI50 with compound", "result": 3.2},
      {"measurement": "GI50", "setting": "[5]; Homo sapiens, 72 hours", "result": 55, "unit": "µM"},
      {"measurement": "SN-38 PF50", "setting": "[6]; 2 μM compound", "result": 3.0},
      {"measurement": "Temozolomide PF50", "setting": "[6]; 2 μM compound", "result": 5.9},
      {"measurement": "GI50", "setting": "[6]; Homo sapiens, MCF7, 72 hours", "result": 11, "unit": "µM"}
    ]}
  ]
}
